From patent publication US9572760B2, “Uses of compounds and mixtures from Antrodia cinnamomea mycelia” (Simpson Biotech Co., Ltd., priority 2013, dated 2017)

Columns and labels:
cirrhotic animals = assay: Biochemical analysis of serum (liver damage parameters) in DEN cirrhotic animal model; type: in vivo, Wistar rats; settings: compound B 7 mg/kg, compound C 14 mg/kg, ACM 320 mg/kg/day, gastric tube, 5th to 11th week, vs control group
Description: Samples of 1 ml blood were gathered from the retro-orbital plexus of each […] and immediately centrifuged at 1300×g at 4° C., plasma was kept at −20° C. for liver function tests. Alanine aminotranferease (ALT), aspartate aminotransferase (AST), total bilirubin and Gamma-glutamyl transpeptidase (γ-GT) levels were determined using commercial enzymatic kits with a colorimetric analyzer (Dri-Chem 3000, Fuji Photo Film Co, Tokyo, Japan).

HSC = HSC apoptosis by cell death detection ELISA; type: cell-based; settings: 24-80 μM; 24 h, 48 h and 72 h
Description: Apoptosis was detected with a sandwich immunoassay system using a cell death detection ELISA kit (Roche Diagnostic Inc.). Roche's Cell Death Detection ELISA kit qualitatively and quantitatively detects the amount of cleaved DNA/histone complexes (nucleosomes) in a given sample using a sandwich-enzyme-immunoassay-based method. The cells (1×10^4 cells/well) were seeded in 100 μl medium in a 96-well plate (Nunc, Denmark) and cultured for 24 h to allow the cells to attach and then treated with three different concentrations (8 μM, 24 μM and 80 μM) of either Compound A, B, C and D for 24 h, 48 h and 72 h and the plates were incubated in 37° C. After incubation, the 96 well plates were centrifuged for 10 min at 200×g and removed supernatant and discard, then added 200 μl of lysis buffer per well using multipipetman and incubated 30 min at room temperature, microplates were centrifuged the lysate at 200×g for 10 min. After the centrifuge, 20 μl of the supernatant was transferred into the streptavidin-coated microplate, then added 80 μl of immunoreagent to each well. The microplate was covered with an adhesive foil and incubated on a shaker under gentle shaking for 2 hour at room temperature. After the incubation period, microplates were washed three times with 250-300 μl incubation buffer and 100 μl ABTS solution was added and incubated for 30 min or until color is sufficient for photometric. ABTS Stop solution was added and absorbance of the samples was measured using ELISA reader at 405 nm, reference wavelength at 490 nm.

[1] = system: Dermal fibroblast, CG1639 cells; assay: Profibrogenic gene expression in dermal fibroblast cell line (qRT-PCR); type: cell-based; settings: two concentrations, 72 hrs
Excerpt: The dermal fibroblast cell line CG1639 was obtained from the BCRC (Bioresource Collection and Research Center) and cultured in Dulbecco's modified Eagle media (DMEM, Gibco by Invitrogen) with 1% antibiotic antimycotic (Gibco by Invitrogen) and 15% fetal bovine serum (Gibco by Invitrogen). The fetal rat skin keratinocyte, FRSK cell line was obtained from the Japan HSRRB (Health Science Research Resources Bank) and cultured in Eagle's minimal essential media (MEM, Gibco by Invitrogen) supplemented with 10% fetal bovine serum (FBS) (Gibco by Invitrogen) and 1% antibiotic antimycotic (Gibco by Invitrogen). B16F10 cells, a murine melanoma cell line, were purchased from American Type Culture Collection (ATCC, Rockville, Md., USA) and was cultured in Eagle's Minimum Essential Medium (MEM; Sigma, St. Louis, Mo.) supplemented with 10% fetal bovine serum (FBS; HyClone Lab. Inc., Logan, Utah), 0.02% antibiotic-antimycotic liquid (penicillin, 10 000 U mL^−1; streptomycin, 10 000 μg mL^−1 and amphotericin B, 25 μg mL^−1; Invitrogen, Carlsbad, Calif.).
Reverse transcription reaction was performed using a commercially available set of High Capacity RNA-to-cDNA Kit (Applied Biosystems, USA). cDNA was prepared from 2 μg of total RNA per 20 μl reaction, according to the manufacturer's instructions—37° C. for 60 minutes, 95° C. for 5 minutes, and hold at 4° C. The resulting cDNA was to a final concentration of 100 ng/μl and constituted a matrix in further experiments.
Amplification and detection the gene expression by real-time PCR were performed using StepOne plus Real-time PCR System (Applied Biosystems, USA). Samples were assayed in a 10 μl reaction mixture containing 2 μl of template DNA, 5 μl of 2× TaqMan PCR Master Mix (Applied Biosystems, Life Technologies, Foster City, Calif., USA), 0.5 μl of 20× assay mix containing probe, forward and reverse primer (Applied Biosystems, Life Technologies, Foster City, Calif., USA), whereby qPCR targets with the following information were used: (a) α-SMA, Assay ID Rn01759928_g1, (b) TIMP-1, Assay ID Rn00587558_m1, (c) TGF-β1, Assay ID Rn00572010_m1, (d) Collagen I, Assay ID Rn 01463838_m1, (e) GAPDH, Assay ID Rn1462662_g1. To control variation in mRNA concentration, all results were normalized to the housekeeping gene, GAPDH. Relative quantitation was performed using the comparative ΔΔCt method according to the manufacturer's instructions. The cycling conditions used were as follows: 50° C. for 2 min, 95° C. for 10 min followed by 40 cycles of 95° C. for 15 s and 60° C. for 1 min each.
Dermal fibroblast, CG1639 cells, were exposed to Hepasim compounds by two different concentrations for 72 hrs. Then, RNA was extracted and subsequent real-time quantitative PCR Collagen-1, TGF-β1, α-SMA and TIMP-1 mRNA were measured.

## CC(C)=CCOc1ccc(C2=C(CC(C)C)C(=O)N(O)C2=O)cc1 [Compound C, 3-isobutyl-4-[4-(3-methyl-2-butenyloxy)phenyl]-1H-pyrrol-1-ol-2,5-dione]
Cirrhotic animals
  serum Alanine aminotranferease (ALT) level: significantly reduced
  serum Gamma-glutamyl transpeptidase (γ-GT) level: significantly reduced
  serum aspartate aminotransferase (AST) level: significantly reduced
  serum total bilirubin level: significantly reduced
HSC
  apoptosis of HSC (cell death detection assay): apoptosis of HSC
[1]
  All-4 profibrogenic gene expression (Collagen-1, TGF-β1, α-SMA, TIMP-1): down-regulated significantly
  dose dependence of profibrogenic gene down-regulation: dose-dependent effect

## CC(C)=CCOc1ccc(C2=C(CC(C)C)C(=O)NC2=O)cc1 [Compound B, 3-isobutyl-4-[4-(3-methyl-2-butenyloxy)phenyl]-1H-pyrrol-2,5-dione]
Cirrhotic animals
  serum Alanine aminotranferease (ALT) level: significantly reduced
  serum Gamma-glutamyl transpeptidase (γ-GT) level: significantly reduced
  serum aspartate aminotransferase (AST) level: significantly reduced
  serum total bilirubin level: significantly reduced
HSC
  apoptosis of HSC (cell death detection assay): apoptosis of HSC
[1]
  All-4 profibrogenic gene expression (Collagen-1, TGF-β1, α-SMA, TIMP-1): down-regulated significantly
  dose dependence of profibrogenic gene down-regulation: dose-dependent effect
